From the NIST ThermoML archive (doi:10.1021/je500110d) come the findings set out here.

± gives the expanded uncertainty stated by the source.

As a reminder, the vapor or sublimation pressure is the pressure of vapour in equilibrium with the condensed phase.

Series [1] can be described thus: Molar enthalpy of transition or fusion. The conditions noted are these: Crystal; DSC.
Where [2] appears, read: 298.15 K, Liquid, Gas chromatography.
The mark [3] stands for this setting: 298.15 K, Metastable liquid, Gas chromatography.

Take `CCCCOC(=O)c1ccccc1C(=O)OCCCC` [dibutyl phthalate]: the “vapor or sublimation pressure” value runs as follows: (333.2 K, Liquid, Transpiration method) 0.000224 ± 9e-06 kPa; (338.4 K, Liquid, Transpiration method) 0.000365 ± 1.4e-05 kPa; (343.4 K, Liquid, Transpiration method) 0.000586 ± 2.3e-05 kPa; (348 K, Liquid, Transpiration method) 0.000838 ± 3.3e-05 kPa; (353.6 K, Liquid, Transpiration method) 0.0014 ± 5e-05 kPa; (358.7 K, Liquid, Transpiration method) 0.00215 ± 8e-05 kPa. The “vapor or sublimation pressure” value turned out to be 0.00316 ± 0.00012 kPa (363.7 K, Liquid, Transpiration method); 0.00459 ± 0.00018 kPa (368.7 K, Liquid, Transpiration method); 0.00675 ± 0.00026 kPa (373.6 K, Liquid, Transpiration method); 0.00948 ± 0.00037 kPa (378.5 K, Liquid, Transpiration method).

`CCCCCCCCOC(=O)c1ccccc1C(=O)OCCCCCCCC` [dioctyl 1,2-benzenedicarboxylate]: the “vapor or sublimation pressure” value under setting [2] amounted to 5.5e-09 ± 1.1e-08 kPa.

On to `COC(=O)c1ccc(C(=O)OC)cc1` [dimethyl 1,4-benzenedicarboxylate], for which the “vapor or sublimation pressure” value under setting [3] was 2.14e-07 ± 3.1e-08 kPa.

In the case of `CCCCOC(=O)c1ccccc1C(=O)OCc1ccccc1` [benzyl butyl 1,2-benzenedioate], under setting [2], the “vapor or sublimation pressure” value is 2e-07 ± 1e-07 kPa.

On to `O=C(OC1CCCCC1)c1ccccc1C(=O)OC1CCCCC1` [dicyclohexyl phthalate], for which the “vapor or sublimation pressure” value under setting [3] came out at 8e-08 ± 2e-08 kPa. The Triple point temperature (Crystal, DTA) is 336.5 ± 0.7 K. In addition, the “Molar enthalpy of transition or fusion” value in series [1] was 7.72 ± 0.693 kcal/mol.

On to `CCCCC(CC)COC(=O)c1ccc(C(=O)OCC(CC)CCCC)cc1` (configuration not stated) [bis(2-ethylhexyl) terephthalate], for which the “vapor or sublimation pressure” value under setting [2] is reported as 5.4e-09 ± 1e-08 kPa.
